From ChEMBL document CHEMBL1641495, “8-Aza-7,9-dideazaxanthine acyclic nucleoside phosphonate inhibitors of thymidine phosphorylase” (Bioorg Med Chem Lett, 2011)

Experiments:
[1] = biological target: Thymidine phosphorylase (Escherichia coli K-12) (UniProt P07650); test: Inhibition of [3H]methylthymidine binding to Escherichia coli thymidine phosphorylase at 20 uM after 20 mins by scintillation counting
Thymidine phosphorylase [2] = biological target: T1, Thymidine phosphorylase (Escherichia coli K-12, UniProt P07650); test: Inhibition of [3H]methylthymidine binding to Escherichia coli thymidine phosphorylase after 10 mins by scintillation counting
[3] = biological target: Thymidine phosphorylase (Escherichia coli K-12) (UniProt P07650); test: Inhibition of [3H]methylthymidine binding to Escherichia coli thymidine phosphorylase at 100 uM after 20 mins by scintillation counting
Thymidine phosphorylase [4] = biological target: T1, Thymidine phosphorylase; test: Inhibition of [3H]methylthymidine binding to Escherichia coli thymidine phosphorylase after 20 mins by scintillation counting

T1 sequence (P07650 whole entry): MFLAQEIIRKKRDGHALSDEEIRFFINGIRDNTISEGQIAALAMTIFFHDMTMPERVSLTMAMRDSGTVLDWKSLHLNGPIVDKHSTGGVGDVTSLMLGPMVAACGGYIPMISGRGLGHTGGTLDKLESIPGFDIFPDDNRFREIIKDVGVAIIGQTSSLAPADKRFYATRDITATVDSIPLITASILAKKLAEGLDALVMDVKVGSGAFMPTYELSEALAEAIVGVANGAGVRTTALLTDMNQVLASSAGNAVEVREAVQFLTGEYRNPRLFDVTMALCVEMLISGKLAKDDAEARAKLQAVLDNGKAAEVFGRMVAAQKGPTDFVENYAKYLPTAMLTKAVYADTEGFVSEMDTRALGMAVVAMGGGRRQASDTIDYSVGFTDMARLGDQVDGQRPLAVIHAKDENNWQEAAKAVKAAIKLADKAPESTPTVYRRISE
Chain of Thymidine phosphorylase (Escherichia coli K-12) (P07650 whole entry, looked up): as the sequence (P07650 whole entry) above

Row | Compound | inhibition [1] [%] | IC50 (Thymidine phosphorylase [2]) [µM] | inhibition [3] [%] | IC50 (Thymidine phosphorylase [4]) [µM]
1 | O=c1[nH]c(=O)n(CCCCCCCCP(=O)(O)O)c2[nH]ccc12 | 48 | 11.4 | 83 | 
2 | O=c1[nH]c(=O)c2cn(CCCCCCCCP(=O)(O)O)cc2[nH]1 |  |  |  | 12
3 | O=c1[nH]c(=O)n(CCCCCCCCP(=O)(O)O)c2c[nH]cc12 |  |  |  | 6.8
4 | O=c1[nH]c(=O)c2cn(CCCCCCCCn3cc4[nH]c(=O)[nH]c(=O)c4c3)cc2[nH]1 |  |  |  | 3.5
